The subject of assay [1] is heparanase (HPSE) expression in peripheral blood lymphoid cells. Put plainly: Heparanase expression (ddPCR, fractional abundance of cDNA) in peripheral blood lymphoid cells of kidney transplanted rats. Format: in vivo, rat. The settings on record: day 6 after transplantation. As for the experimental part:
(§1) Left orthotopic renal transplants were performed with a mean anastomosis time of 37±4 minutes using a standard technique (11), which would be well known to the skilled person. The procured kidney was perfused with 2 ml Custodial HTK solution (Chemie GMBH, Alsbach-Hähnlein, Germany) at […]. Transplanted rats were given analgesia (Carprofen 5 mg/kg every 12-24 hours subcutaneously) and a prophylactic antibiotic (Enrofloxacin 5 mg/kg SC 12 hourly) for 3 days. The transplanted kidney and blood were procured on day 6 immediately after euthanasia by CO2 asphyxiation. The kidney and blood were used for measurements of gene expression in intragraft lymphoid cells and peripheral blood mononuclear cells.
(§2) Studies about gene expression of heparanase were performed on lymphoid cells from transplanted kidney tissue and peripheral blood on day 6 after transplantation. This time frame encompassed the period of maximum rejection at day 6.
Castanospermine was administered by Alzet osmotic pumps (Alza Corporation, Palo Alto, United States) at an immunosuppressive dose of 150 mg/kg per day. […]
RNA was manually extracted using the RNeasy Plus Mini Kit as per the manufacturer's instructions (Qiagen, Hilden, Germany). […] The quality of the RNA was measured using the Nanodrop 2000 (ThermoFisher Scientific, MA, USA) and quantified using the Qubit 2.0 Fluorometer (Invitrogen, MA, USA), RNA was stored at […]. […]
Custom ddPCR assays were designed using the IDT PrimerQuest™ Tool, Prime Time qPCR assay (IDT, Singapore). […] A 25 ul reaction containing, ddPCR SuperMix for Probes (No dUTP) (Bio-Rad, Hercules, CA, USA), a hypoxanthine-guanine phosphoribosyl transferase reference control (HPRT-1) and heparanase target probes (HPSE) (IDT, Singapore). cDNA and water were created for each sample and added to a 96 well plate ready for ddPCR droplet generation. […]
The samples were left on the cycler for a minimum of 4 hours at 4° C. The droplets were then read on the QX200 Droplet Reader and analysed using QuantaSoft Software (Bio-Rad, Hercules, CA, USA). […]

Assay [2] has as its system heparan sulphate in the renal allotransplant. Put plainly: H-scores for heparan sulphate in the renal allotransplant by digital image pathology. Format: in vivo, rat. Conditions: for H-score for heparan sulphate, estimate of difference: day 6 after transplantation. As for the experimental part: as §1
(§3) Groups used in this study are set out in Tables 6 and 7. Comparisons were made between an isograft control treatment group (i.e., a control for ischaemia reperfusion injury), a non-treated allograft group, and Castanospermine-treated allograft group. A primary comparison was made between the non-treated group versus the Castanospermine-treated group. […]
Whole slide digital images were acquired using an Aperio AT2 (Leica Biosystems, Wetzlar, Germany) at 20× magnification before analysis using the HALO v2.0 software (Indica laboratory, Corrales, New Mexico, USA). After selecting tissue areas, the percentage of total pixels with weak, moderate and strong staining intensity was measured using the ‘Area Quantification V1.0’ algorithm. Histology-score quantitation was calculated for each slide as H-score=(1×weak %)+(2×moderate %)+(3×strong %) providing a range from 0 to 300 (30). 4-6 sections per sample were scored at different levels through the tissue to obtain an average. […]
Three treatment Groups were studied at day 6 after transplantation. […] H Score quantitation is calculated for each slide as H-score=(1×weak %)+(2×moderate %)+(3×strong %) giving a score ranging from 0 to 300. There were 4-6 slides per kidney sample from one rat scored (each taken at different levels through the tissue) to obtain an average for that rat. […]

The test system of the next assay is serum heparan sulphate. Kind of assay: ELISA assay for serum heparan sulphate after renal allotransplantation. Format: in vivo, rat. Conditions: combined days 2, 4, 6. As for the experimental part:
as §1, §3
Serum samples, separated from whole blood were aliquoted and stored at −80° C. […] Absorbance was immediately measured at 450 nm on a Versa Max Microplate Reader (Molecular Devices, Sunnyvale, California, USA) and the results calculated in ng/ml according to the internal standard curve. […]
In general terms: In an ELISA, binding on a coated surface is turned into a signal by an enzyme label.

The test system of assay [3] is heparanase (HPSE) expression in kidney transplant lymphoid cells. Kind of assay: Heparanase expression (ddPCR, fractional abundance of cDNA) in lymphoid cells from kidney transplants. Conditions: Cast 150 mg/kg minus Non-Treated; day 6 after transplantation. It counts as in vivo, rat.
Experimental: RNA was manually extracted using the RNeasy Plus Mini Kit as per the manufacturer's instructions (Qiagen, Hilden, Germany). […] The quality of the RNA was measured using the Nanodrop 2000 (ThermoFisher Scientific, MA, USA) and quantified using the Qubit 2.0 Fluorometer (Invitrogen, MA, USA), RNA was stored at −800 C. […]
Assay [4] relates to heart allograft (PVG donor, DA recipient). Kind of assay: Rat heterotopic cardiac transplantation: heart allograft survival. It counts as in vivo. Conditions: for heart allograft survival times, mean / heart allograft survival times, median: PVG-DA allograft. The method, then:
Inbred rat strains PVG (RT1c) (donor) and DA (RT1a) (recipient) used for heart and renal transplantation were housed under standard conditions. All procedures were approved and audited by an Animal Care and Ethics Committee in Australia.
Heterotopic cardiac transplants were done using a standard technique (10). Cardiac function was assessed daily by abdominal palpation. The end point of cardiac transplant survival was defined as the last day of palpable heart beating. Care of all rats in this study complied with the Animal Research Act 1985 (NSW, Australia). The protocols were designed to minimise pain and discomfort to the animals. Animals were acclimatised to laboratory conditions (22° C., 12 h cycle of light and dark, 50% humidity, ad libitum access to food and water) for a minimum of 1 wk. prior to experimentation. Intragastric gavage administration was carried out with conscious animals, using curved gavage needles appropriate for animal size (250-300 gm body weight: Gauge 16, 100 mm). All transplanted rats were given post-operative analgesia (Carprofen 4 mg/kg every 12-24 h subcutaneously). They were euthanized by approved carbon dioxide asphyxiation when the heart stopped beating prior to tissue procurement.
as §2
Castanospermine was administered by Alzet osmotic pumps (Alza Corporation, Palo Alto, United States) at an immunosuppressive dose of 150 mg/kg per day. OGT 2115 treatment started on the first post operative day and the Castanospermine treatment started on the day of the transplant.
An experiment was conducted comparing heart allograft survival in 6 groups of inbred rats.
These tests were assessed using the Wilcoxon rank sum test procedure. The mean, median, min, max and the first and third quartiles are presented for each group, as well as the estimated difference in location parameters with 95% confidence intervals. The difference in location parameters is the median of the difference between a sample from the first group and a sample from the second group.

The subject of assay [5] is pancreatic islet allografts. Conditions: no IRI control, cited from earlier work.
Assay [6] deals with ischaemia reperfusion injury. The settings on record: reference (2); cited from earlier work.
Where [7] appears, read: Castanospermine (150 mg/kg per day) v Isograft.
Setting [8] is: Non-treated v Castanospermine (150 mg/kg per day).
The mark [9] stands for this setting: Group 4: OGT 2115 2.5 mg/kg subcutaneously.
Setting [10] is: Group 5: OGT 2115 5 mg/kg subcutaneously.
Where [11] appears, read: Group 6: 10 mg/Kg, Wilcoxon difference in location.
[12] abbreviates: Group 6: OGT 2115 10 mg/kg subcutaneously.

Turning to `O[C@H]1[C@H](O)[C@@H](O)CN2CC[C@H](O)[C@H]12` [Castanospermine], the “Estimated mean difference in heparanase levels (percent heparanase cDNA), peripheral blood samples” value in assay [1] (Cast 150 mg/kg minus Non-Treated) is 22.1%. For the same molecule, the figures for the “H-score for heparan sulphate, estimate of difference” value in assay [2] (setting [7]) and in assay [2] (setting [8]) were −3.08 and 34.78, respectively. Also, the “breakdown of HSPG (in words)” value in assay [2] (in both the allotransplant and the serum from allotransplanted rats, 150 mg/kg per day) is listed as “effectively stops the breakdown of HSPG”. Also, the “serum heparan sulphate levels, ratio of estimate of difference” value with serum heparan sulphate (setting [7]) was 1.05; in the assay on serum heparan sulphate (setting [8]), 1.72. Besides, the “Estimated mean difference in heparanase levels (percent heparanase cDNA), kidney samples” value in assay [3] is recorded as −31.0%.
`O=C(O)Cc1ccc2oc(-c3ccc(NC(=O)/C=C/c4ccc(Br)cc4)c(F)c3)nc2c1` [OGT 2115]: the “Estimated mean difference in heparanase levels (percent heparanase cDNA), peripheral blood samples” value in assay [1] (OGT 2115 10 mg/kg minus Isograft) is listed as 17.0%; in assay [1] (OGT 2115 10 mg/kg minus Non-Treated), 35.9%. Besides, in assay [4] (2.5, 5 and 10 mg/Kg, Table 2 and FIG. 1), the “survival of the heart allotransplant grafts (in words)” value is reported as “prolonged the survival”. The “heart allograft survival times, mean” value is reported as 7.40 days in assay [4] (setting [9]), 7.33 days in assay [4] (setting [10]) and 9.18 days in assay [4] (setting [12]). Moreover, the “heart allograft survival times, median” value in assay [4] (setting [9]) came to 8 days; in assay [4] (setting [10]), 7 days; in assay [4] (setting [12]), 9 days. For the same molecule, in assay [4] (setting [11]), the “estimated increase in survival compared to DMSO” value is 3 days. Besides, the “estimated increase in survival compared to Non-treated PVG-DA” value in assay [4] (setting [11]) is listed as 2 days.
With PI 88, the “rejection of islet allografts (in words)” value in assay [5] (WO 2008/046162, example 8 and FIG. 10) is “curtails rejection of islet allografts”. The “survivals of pancreatic islet allografts (in words)” value in assay [5] (WO 2011/109877, Example 7 and FIG. 15) is listed as “prolonged”.
On to Roneparstat, for which, in assay [6], the “ischaemia reperfusion injury (in words)” value is listed as “curtail ischaemia reperfusion injury”.

Source of the values: US20250295638A1, “METHODS OF TREATING ALLOGRAFT REJECTION” (Bargent Therapeutics Pty Ltd, priority 2022, published 2025).
